Test results as given in patent US8846914B2, “Compositions to effect neuronal growth” (Neuralstem, Inc., priority 2003, dated 2014).
Where two headings read alike, the source gives them in different places.

Columns and labels:
[1] = test system: human hippocampal stem cells differentiated for 3-4 weeks; test: Neuroprotection against staurosporine-induced neurodegeneration; assay type: cell-based; settings: 125 nM staurosporine, twenty-four hour, 10 μM agent; for inhibition at 10 µM: Homo sapiens, 24 h
Experimental: FIG. 7A is a bar graph illustrating an example of a neuroprotection profile of the compounds against staurosporine-induced human hippocampal neurodegeneration as indicated by loss of neurons after twenty-four hour treatment with staurosporine by counting the remaining number of neurons, an increase in […], and an increase in intracellular levels of activated caspase-3/-7 detected by immunostaining. Addition of 125 nM staurosporine solution to human hippocampal stem cells differentiated for 3-4 weeks causes neuronal injury and death. Effect of the […] treatment to inhibit the staurosporine-induced neuronal loss and injury are shown. Each bar represents n=6 wells of the mean+/−the SEM from a single experiment.
Effect of the compound treatment to inhibit the staurosporine-induced neuronal loss and injury are shown. Each bar represents n=6 wells of the mean+/−the SEM from a single experiment.
Agents that promote proliferation and neurogenesis are further evaluated for their ability to inhibit neurodegeneration and apoptosis of the human hippocampal multipotent stem cell-derived neurons. Neurodegeneration may be induced in culture using any number of inducers as known by those skilled in the art. Examples of neurodegenerative inducers include: staurosporine, hypoxia reperfusion, free radicals, glutamate agonists, activated monocyte supernatant, beta amyloid peptides and corticosteroids to name a few. Some of the neurogenic agents inhibit loss of neurons, inhibit caspase activation, inhibit nuclear fragmentation or condensation, inhibit lactate dehydrogenase activity among other effects on neurodegeneration. Using staurosporine as an example, 125 nM of a staurosporine solution is added along with 10 μM of one of the listed neurogenic agents to human hippocampal stem cells differentiated for 3-4 weeks.
A number of neurogenic agents inhibit neuronal loss, caspase-3 activity and/or nuclear fragmentation compared to staurosporine vehicle control. These NSI small molecule agents are all effective at in vitro neurogenesis as determined by methods described. More particularly, human hippocampal stem cells differentiated for a period of 3-4 weeks are treated with an agent for 8-24 hrs in a neuronal maintenance media prior to treatment with an apoptotic or neurodegenerative insults such as staurosporin, TNFα and LPS-stimulated monocyte supernatant and the like. Following the treatment period, media is removed from the treated cells and the cells are fixed and stained. Staining may include Hoechst stain, MAP-2ab (AP-20) antibody staining, active caspase-3 antibody or other measures of neurodegeneration and apoptosis. Instrumentation such as a Molecular Devices fluorescent plate reader or a […] Array Scan II instrument and the like may be used to measure the degeneration and apoptosis.
FIGS. 7A, 7B and 7C illustrate an example of a neuroprotection profile of tested compounds against staurosporine-induced human hippocampal neurodegeneration measured by the remaining number of neurons, an increase in nuclear fragmentation, and an increase in intracellular levels of activated caspase-3/-7 detected by immunostaining, respectively. Human hippocampal stem cells that have been differentiated for 3-4 weeks undergo a twenty-four hour treatment with 125 nM staurosporine solution to cause neuronal injury and death. The effect of the compound treatment to inhibit the staurosporine-induced neuronal loss and injury is shown in each of FIGS. 7A, 7B and 7C. Each bar represents n=6 wells of the mean+/−the SEM from a single experiment.

[2] = test system: hippocampal stem cells; test: Differentiation into mature neurons (BrdU+/MAP-2ab+), three-week treatment; assay type: cell-based, human; settings: three weeks of continuous treatment; two-day BrdU pulse; FIG. 12
Experimental: FIG. 12 is a bar graph illustrating an example of differentiation into mature neurons as a percentage of control in response to a three-week treatment with the test compounds. Mitotic cells were labeled with BrdU. BrdU-positive cells were double-stained with the marker of mature neurons, anti-MAP-2 antibody. Total BrdU-immunostained cells and BrdU+/MAP-2ab+ co-stained cells indicating neurons were counted.
In FIG. 12 the exact number of dividing cells and neurons are determined to confirm that the increase in neurons is due to proliferation followed by differentiation. In FIG. 12, hippocampal stem cells are plated in a 96-well plate. The cells are then treated with one of the agents listed along with a two-day pulse of bromodeoxyuridine which is taken up into dividing cells thereby labeling mitotic cells with BrdU. After three weeks of continuous treatment with the listed agents, the cells are fixed and stained for BrdU immunoreactivity. BrdU-positive cells are double-stained with the marker of mature neurons, anti-MAP-2 to identify cells that have differentiated into mature neurons. The BrdU+/MAP-2ab+ co-stained cells which have differentiated into mature neurons are distinguished from control BrdU-immunostained cells which are proliferating stem cells.

[3] = test system: caspase-3 activation induced by beta amyloid peptide 25-35; test: Apoptosis induced by beta amyloid peptide 25-35 (caspase-3); assay type: cell-based, human; settings: FIG. 8
Description: FIG. 8 is a bar graph illustrating an example of a neuroprotection profile of the compounds against apoptosis, also known as programmed cell death, induced by beta amyloid peptide 25-35 as a model of Alzheimer's disease. Caspase-3 activation plays a central role in apoptosis and is an indicator of the occurrence of apoptosis if detected. […] Bars represent mean±SD from five wells.
Another assay used to determine the ability of a compound to provide neuroprotection is an apoptosis assay. Apoptosis is measured using the activity of an early matter of the programmed cell death pathway, caspase-3. Following 24 hours or 48 hours of apoptotic-induction in the presence and absence of compound treatment, the media is removed from the wells, and 50 μl cell lysis buffer is added to each well, 50 μl of 2× reaction buffer containing 10 mM DTT is then added to the lysate in each well. The contents of two wells are combined (for example: rows A/H, B/G, C/F, D/E), and 5 μl of substrate is added per well as recommended in the protocol for a caspase-3 fluorometric assay kit (Biovision) known in the art. The plate is incubated at 37° C. for 60 minutes. The contents of each well are then transferred to a fresh plate, and the fluorescence is determined with an […] using a fluorescent plate reader such as the Molecular Devices Gemini Fluorescent Plate Reader. Caspase-3 activity is expressed as μM of cleaved substrate per hour. Substrate concentration in μM is run for each plate to determine activity values for each treatment condition.
FIG. 8 is a bar graph illustrating an example of a neuroprotection profile of the compounds against apoptosis induced by beta amyloid peptide 25-35, part of a larger peptide found in plaques in Alzheimer's brains, as a model of Alzheimer's disease. Caspase-3 activation plays a central role in apoptosis and is an indicator of the occurrence of apoptosis if detected. […] Bars represent mean±SD from five wells.

[4] = read-out: Stauro % Inhib Nuclear Frag
[5] = read-out: Stauro % Inhib Caspase-3

Row | Structure (SMILES) | Stauro % Inhib Neuron Number [1] | Proliferation and differentiation into mature neurons (BrdU+/MAP-2ab+ cells) [2] | inhibition at 10 µM [1, 4] [%] | further results
1 | CCCCNc1c(C2CCN(C(=O)CN(CC(C)C)S(C)(=O)=O)CC2)nc2cnccn12 [NSI-106] | 16 ± 19% | – | – | –
2 | CS(=O)(=O)N1CCCCC1C(=O)NCc1ccc(Nc2c(C3CC3)nc3ccccn23)cc1 (centres unmarked) [NSI-127] | – | induce proliferation and then differentiation into neurons | – | –
3 | COc1ccc(CCNc2ncc(C(N)=O)c(NC3CC3)n2)cc1OC [NSI-130] | – | – | 56 ± 17 | Inhibition of apoptosis induced by beta amyloid peptide 25-35 [3]: inhibit apoptosis
4 | CCCNc1ncc(C(N)=O)c(NC2CCCC2)n1 [NSI-137] | – | – | 87 ± 41 | –
5 | O=C(NC1CCN(Cc2ccccc2)CC1)c1cccnc1N1CCNCC1 [NSI-143] | – | – | 123 ± 77 | –
6 | NC(=O)c1cnc(NCc2ccc(Cl)cc2)nc1NCC1CCCCC1 [NSI-144] | – | induce proliferation and then differentiation into neurons | – | Inhibition of apoptosis induced by beta amyloid peptide 25-35 [3]: inhibit apoptosis
7 | CCCCNc1c(C2CCN(C(=O)c3ccc(C#N)cc3)CC2)nc2ccccn12 [NSI-149] | 47 ± 15% | – | – | –
8 | NC(=O)C1CCCN1C(=O)c1cccnc1NCC1CCCCC1 (centres unmarked) [NSI-158] | 22 ± 18% | – | – | inhibition at 10 µM [1, 5]: 48 ± 14%
9 | O=C(NCc1nc2ccccn2c1NCC1CCCO1)Oc1ccccc1 (centres unmarked) [NSI-182] | – | – | 85 ± 45 | inhibition at 10 µM [1, 5]: 108 ± 21%; Inhibition of apoptosis induced by beta amyloid peptide 25-35 [3]: inhibit apoptosis
10 | O=C(COc1ccccc1)NCc1nc2ccccn2c1NCC1CCCO1 (centres unmarked) [NSI-183] | – | induce proliferation and then differentiation into neurons | – | –
11 | CS(=O)(=O)N(CC(=O)NCc1nc2ccccn2c1NCc1ccccc1)c1ccccc1 [NSI-185] | – | – | – | Stauro % Inhib Nuclear Frag [1]: N/N
12 | CC(C)CCNc1ncccc1C(=O)N1CCN(Cc2ccccc2)CC1 [NSI-189] | N/N | – | – | –
13 | CCN(CCNC(=O)c1cccnc1NCCC(C)C)Cc1cccnc1 [NSI-190] | 32 ± 1% | induce proliferation and then differentiation into neurons | 42 ± 30 | –
